# According to US10285982B2, “3-(1H-pyrrolo[2,3-B]pyridin-2-yl)-1H-pyrazolo[3,4-C]pyridines and therapeutic uses thereof” (Samumed, LLC, priority 2015, dated 2019):
# Experiments:
# Assay type in all cases: cell-based
# [1] = tested on: Wnt activity (Sp5-Luc reporter, SW480 colon carcinoma cells); assay: Wnt activity screening assay, Sp5-Luc reporter gene in SW480 cells; conditions: Homo sapiens; for EC50: overnight incubation
# Text: The screening assay for Wnt activity is described as follows. Reporter cell lines can be generated by stably transducing cancer cell lines (e.g., colon cancer) or primary cells (e.g., IEC-6 intestinal cells) with a lentiviral construct that includes a Wnt-responsive promoter driving expression of the firefly luciferase gene.
# SW480 colon carcinoma cells were transduced with a lentiviral vector expressing luciferase with a human Sp5 promoter consisting of a sequence of eight TCF/LEF binding sites. SW480 cells stably expressing the Sp5-Luc reporter gene and a hygromycin resistance gene were selected by treatment with 150 μg/mL of hygromycin for 7 days. These stably transduced SW480 cells were expanded in cell culture and used for all further screening activities. Each compound was dissolved in DMSO as a 10 mM stock and used to prepare compound source plates. Serial dilution (1:3, 10-point dose-response curves starting from 10 μM) and compound transfer was performed using the ECHO 550 (Labcyte, Sunnyvale, Calif.) into 384-well white solid bottom assay plates (Greiner Bio-One) with appropriate DMSO backfill for a final DMSO concentration of 0.1%. For Sp5-Luc reporter gene assays, the cells were plated at 4,000 cells/well in 384-well plates with medium containing 1% fetal bovine serum and incubated overnight at 37° C. and 5% CO2. Following incubation, 20 μl of BrightGlo luminescence reagent (Promega) was added to each well of the 384-well assay plates. The plates were placed on an orbital shaker for 2 min and then luminescence was quantified using the Envision (Perkin Elmer) plate reader. Readings were normalized to DMSO only treated cells, and normalized activities were utilized for EC50 calculations using the dose-response log (inhibitor) vs. response-variable slope (four parameters) nonlinear regression feature available in GraphPad Prism 5.0 (or Dotmatics). For EC50 of >10 μM, the percent inhibition at 10 μM is provided.
# SW480 colon cancer cells = assay: Cell viability assay (CellTiter-Blue); conditions: Homo sapiens, 96 h, four days
# Protocol: Representative compounds were screened using the following assay procedure to assess the effect on cell viability as described below.
# Each compound was dissolved in DMSO as a 10 mM stock and used to prepare compound source plates. Serial dilution (1:3, 8-point dose-response curves from 10 μM to 0.0045 μM) and compound transfer was performed using the ECHO 550 (Labcyte, Sunnyvale, Calif.) into 96-well clear bottom, black-walled plates (Corning-Costar).
# Approximately 2×10^3 SW480 colon cancer cells were seeded into each well and allowed to incubate in the presence or absence of compound for four days at 37° C./5% CO2. Eight replicates of DMSO-treated cells served as controls and cells treated with compound were performed in duplicate.
# After incubation, 20 μL of CellTiter-Blue (Promega) was added to each well allowed to incubate for approximately 3 hours. This reagent was a buffered solution which contains resazurin, metabolically active cells were able to reduce rezarurin (blue) into resorufin (pink) which was highly fluorescent. This measured fluorescence was used as a readout for cell viability.
# After incubation, the plates were read at Ex 560 nm Em 590 nm (Cytation 3, BioTek). Dose-response curves were generated and EC50 concentration values were calculated using non-linear regression curve fit in the GraphPad Prism (San Diego, Calif.) or Dotmatics' Studies Software (Bishops Stortford, UK). For EC50 of >10 μM, the percent inhibition at 10 μM is provided.
# [2] = tested on: primary human fibroblasts derived from IPF patients (LL29 cells) treated with TGF-β1; assay: Inhibition of fibrotic process, αSMA staining in TGF-β1 treated LL29 fibroblasts; conditions: Fibroblast, 96 h, % αSMA positive LL29 cells, TGF-β1 20 ng/mL, 4 days
# Text: Representative compounds were screened using primary human fibroblasts (derived from IPF patients) treated with TGF-β1 to determine their ability to inhibit the fibrotic process.
# Primary human fibroblasts derived from IPF patients (LL29 cells) [^1Xiaoqiu Liu, et. al., “Fibrotic Lung Fibroblasts Show Blunted Inhibition by cAMP Due to Deficient cAMP Response Element-Binding Protein Phosphorylation”, Journal of Pharmacology and Experimental Therapeutics (2005), 315(2), 678-687; ^2Watts, K. L., et. al., “RhoA signaling modulates cyclin D1 expression in human lung fibroblasts; implications for idiopathic pulmonary fibrosis”, Respiratory Research (2006), 7(1), 88] were obtained from American Type Culture Collection (ATCC) and expanded in F12 medium supplemented with 15% Fetal Bovine Serum and Penicillin/Streptomycin.
# Each compound was dissolved in DMSO as a 10 mM stock and used to prepare compound source plates. Serial dilution (1:2, 11-point dose-response curves from 10 μM to 1.87 nM) and compound transfer was performed using the ECHO 550 (Labcyte, Sunnyvale, Calif.) into 384-well clear bottom assay plates (Greiner Bio-One) with appropriate DMSO backfill for a final DMSO concentration of 0.1%. LL29 cells are plated at 1,500 cells/well in 80 μL/well F12 medium supplemented with 1% Fetal Bovine Serum. One hour after addition of the cells, TGF-β1 (Peprotech; 20 ng/mL) was added to the plates to induce fibrosis (ref. 1 and 2 above). Wells treated with TGF-β1 and containing DMSO were used as controls. Cells were incubated at 37° C. and 5% CO2 for 4 days. Following incubation for 4 days, SYTOX green nucleic acid stain (Life Technologies [Thermo Fisher Scientific]) was added to the wells at a final concentration of 1 μM and incubated at room temperature for 30 min. Cells were then fixed using 4% formaldehyde (Electron Microscopy Sciences), washed 3 times with PBS followed by blocking and permeabilization using 3% Bovine Serum Albumin (BSA; Sigma) and 0.3% Triton X-100 (Sigma) in PBS. Cells were then stained with antibody specific to α-smooth muscle actin (αSMA; Abcam) (ref. 1 and 2 above) in 3% Bovine Serum Albumin (BSA; Sigma) and 0.3% Triton X-100 (Sigma) in PBS, and incubated overnight at 4° C. Cells were then washed 3 times with PBS, followed by incubation with Alexa Flor-647 conjugated secondary antibody (Life Technologies [Thermo Fisher Scientific]) and DAPI at room temperature for 1 hour. Cells were then washed 3 times with PBS and plates were sealed for imaging. αSMA staining was imaged by excitation at 630 nm and emission at 665 nm and quantified using the Compartmental Analysis program on the CellInsight CX5 (Thermo Scientific). Dead or apoptotic cells were excluded from analysis based on positive SYTOX green staining. % of total cells positive for αSMA were counted in each well and normalized to the average of 11 wells treated with TGF-β1 on the same plate using Dotmatics' Studies Software. The normalized averages (fold change over untreated) of 3 replicate wells for each compound concentration were used to create dose-responses curves and EC50 values were calculated using non-linear regression curve fit in the Dotmatics' Studies Software. For EC50 of >10 μM, the percent inhibition at 10 μM is provided.
# IL-6 (THP-1 cells) = assay: IL-6 inhibition in LPS-stimulated THP-1 cells (HTRF); conditions: Homo sapiens; IL-6 in THP-1 cells, LPS 500 ng/mL, 22 hours
# Protocol: Human monocyte cell line (THP-1 cells; Catalog # TIB-202, ATCC, Manassas, Va.) were cultured in Roswell Park Memorial Institute (RPMI) 1640 Medium (Catalog #21870-100, Buffalo, N.Y.) with 1% L-glutamine, 1% HEPES, 1% Sodium Pyruvate, 2% Sodium Bicarbonate supplemented with 100 units/mL penicillin, 50 μg/mL streptomycin, 2-mercaptoethanol (0.05 mM) [basal medium] and 10% fetal bovine serum (Catalog #16140089, Life Technologies, Carlsbad, Calif.) at 37° C. and 5% CO2.
# THP-1 cells were cultured in basal media with 1% FBS for 24 hours before the start of the assay. Each compound was dissolved in DMSO as a 10 mM stock and used to prepare compound source plates. Serial dilution (1:3, 10-point dose-response curves starting from 10 μM) and compound transfer was performed using the ECHO 550 (Labcyte, Sunnyvale, Calif.) into 384-well white low volume assay plates (Greiner Bio-One) with appropriate DMSO backfill for a final DMSO concentration of 0.1%. THP-1 cells were plated at 5000 cells/well in the 384-well plates and incubated at 37° C. for 2 h. 500 ng/mL of LPS was added after 2 hours and cells were incubated for another 22 hours at 37° C. Plates were spun in a centrifuge for 1 minute at […] and a mixture of anti-IL6 XL665, and anti-IL6 Cryptate diluted in reconstitution buffer (Cisbio Inc.) was added to each well. Following incubation for 3 hrs at room temperature, Homogeneous Time-Resolved Fluorescence (HTRF) was measured using the Envision (Perkin Elmer) at 665 nm and […]. The ratio of fluorescence at 665 nm to 620 nm was used as a readout for IL6 quantification. All samples were processed in duplicate. Readings were normalized to DMSO treated cells and normalized activities were utilized for EC50 calculations using the dose-response log (inhibitor) vs. response-variable slope (four parameters) nonlinear regression feature available in GraphPad Prism 5.0 (or Dotmatics). For EC50 of >10 μM, the percent inhibition at 10 μM is provided.
Compound,EC50 [1],EC50 (SW480 colon cancer cells),EC50 [2],EC50 (IL-6 (THP-1 cells)),"inhibition at 10 µM ([1]; at 10 μM, given where EC50 >10 μM, read-out: percent inhibition at 10 μM)"
"Cc1ccncc1-c1cc2c(-c3cc4c(-c5ccc(F)cc5)ccnc4[nH]3)n[nH]c2cn1 [Compound 33, 3-(4-(4-Fluorophenyl)-1H-pyrrolo[2,3-b]pyridin-2-yl)-5-(4-methylpyridin-3-yl)-1H-pyrazolo[3,4-c]pyridine]",642 nM,1050 nM,146 nM,4050 nM,–
"CC(C)Nc1cncc(-c2cc3c(-c4cc5c(-c6ccc(F)cc6)ccnc5[nH]4)n[nH]c3cn2)c1 [Compound 40, 5-(3-(4-(4-Fluorophenyl)-1H-pyrrolo[2,3-b]pyridin-2-yl)-1H-pyrazolo[3,4-c]pyridin-5-yl)-N-isopropylpyridin-3-amine]",223 nM,179 nM,43 nM,9380 nM,–
"CC(C)(C)CC(=O)Nc1cncc(-c2cc3c(-c4cc5c(-c6ccc(F)cc6)ccnc5[nH]4)n[nH]c3cn2)c1 [Compound 44, N-(5-(3-(4-(4-Fluorophenyl)-1H-pyrrolo[2,3-b]pyridin-2-yl)-1H-pyrazolo [3,4-c]pyridin-5-yl)pyridin-3-yl)-3,3-dimethylbutanamide]",144 nM,1160 nM,311 nM,4400 nM,–
"Fc1ccc(-c2ccnc3[nH]c(-c4n[nH]c5cnc(-c6cncc(CN7CCC(F)(F)C7)c6)cc45)cc23)cc1 [Compound 54, 5-(5-((3,3-Difluoropyrrolidin-1-yl)methyl)pyridin-3-yl)-3-(4-(4-fluorophenyl)-1H-pyrrolo[2,3-b]pyridin-2-yl)-1H-pyrazolo[3,4-c]pyridine]",> 10000 nM,1400 nM,1110 nM,2050 nM,28.1%
"Fc1ccccc1-c1ccnc2[nH]c(-c3n[nH]c4cnc(-c5ccccn5)cc34)cc12 [Compound 84, 3-(4-(2-Fluorophenyl)-1H-pyrrolo[2,3-b]pyridin-2-yl)-5-(pyridin-2-yl)-1H-pyrazolo[3,4-c]pyridine]",279 nM,411 nM,561 nM,6420 nM,–
"c1cncc(-c2cc3c(-c4cc5c(N6CCCCC6)ccnc5[nH]4)n[nH]c3cn2)c1 [Compound 172, 3-(4-(Piperidin-1-yl)-1H-pyrrolo[2,3-b]pyridin-2-yl)-5-(pyridin-3-yl)-1H-pyrazolo[3,4-c]pyridine]",2240 nM,3540 nM,1730 nM,3400 nM,–
"CC(C)C(=O)Nc1cncc(-c2cc3c(-c4cc5c(N6CCCCC6)ccnc5[nH]4)n[nH]c3cn2)c1 [Compound 177, N-(5-(3-(4-(Piperidin-1-yl)-1H-pyrrolo[2,3-b]pyridin-2-yl)-1H-pyrazolo[3,4-c]pyridin-5-yl)pyridin-3-yl)isobutyramide]",867 nM,1080 nM,1490 nM,9850 nM,–
"CC(C)Nc1cncc(-c2cc3c(-c4cc5c(N6CCCCC6)ccnc5[nH]4)n[nH]c3cn2)c1 [Compound 180, N-Isopropyl-5-(3-(4-(piperidin-1-yl)-1H-pyrrolo[2,3-b]pyridin-2-yl)-1H-pyrazolo[3,4-c]pyridin-5-yl)pyridin-3-amine]",1630 nM,1540 nM,2430 nM,9550 nM,–
"CC(C)(C)CC(=O)Nc1cncc(-c2cc3c(-c4cc5c(N6CCCCC6)ccnc5[nH]4)n[nH]c3cn2)c1 [Compound 184, 3,3-Dimethyl-N-(5-(3-(4-(piperidin-1-yl)-1H-pyrrolo[2,3-b]pyridin-2-yl)-1H-pyrazolo[3,4-c]pyridin-5-yl)pyridin-3-yl)butanamide]",3240 nM,4300 nM,1960 nM,3310 nM,–
"O=C(Nc1cncc(-c2cc3c(-c4cc5c(-c6ccoc6)ccnc5[nH]4)n[nH]c3cn2)c1)C1CC1 [Compound 328, N-(5-(3-(4-(Furan-3-yl)-1H-pyrrolo[2,3-b]pyridin-2-yl)-1H-pyrazolo[3,4-c]pyridin-5-yl)pyridin-3-yl)cyclopropanecarboxamide]",121 nM,107 nM,37 nM,533 nM,–
